Laboratory results: ChEMBL document CHEMBL5346870, “Discovery of novel 5-methoxybenzothiophene hydrazides as metabolically stable Clk1 inhibitors with high potency and unprecedented Clk1 isoenzyme selectivity” (Eur J Med Chem, 2023)
Each block holds one compound with its values, some of them ahead of it.

Experiments:
[1] = Selectivity index, ratio of IC50 for inhibition of CLK2 (unknown origin) to IC50 for inhibition of CLK1 (unknown origin)
[2] = biological target: T1, Dual specificity protein kinase CLK1 (Homo sapiens, UniProt P49759); conditions: dose 100.0 nM, time 15.0 min
Target sequence in this assay (P49759 whole entry, looked up): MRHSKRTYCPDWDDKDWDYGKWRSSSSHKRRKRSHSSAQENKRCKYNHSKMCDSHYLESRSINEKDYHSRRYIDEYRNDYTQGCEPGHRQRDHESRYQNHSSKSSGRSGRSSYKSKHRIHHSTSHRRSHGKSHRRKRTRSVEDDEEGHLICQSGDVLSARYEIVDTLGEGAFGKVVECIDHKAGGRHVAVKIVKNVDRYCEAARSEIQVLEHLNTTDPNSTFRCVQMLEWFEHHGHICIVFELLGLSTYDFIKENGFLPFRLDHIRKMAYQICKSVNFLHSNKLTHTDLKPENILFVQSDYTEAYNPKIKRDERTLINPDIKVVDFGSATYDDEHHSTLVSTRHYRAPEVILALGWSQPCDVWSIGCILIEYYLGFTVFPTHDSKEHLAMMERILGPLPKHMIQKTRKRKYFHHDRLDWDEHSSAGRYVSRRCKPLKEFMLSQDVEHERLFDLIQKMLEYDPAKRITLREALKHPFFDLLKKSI

[3] = Selectivity index, ratio of inhibition of DYRK1A (unknown origin) to inhibition of CLK1 (unknown origin)
[4] = Metabolic stability in human liver microsomes assessed as half life; assay type: ADME, Microsome
[5] = Metabolic stability in pooled human liver S9 fraction assessed as half life at 0.3 uM incubated for 120 mins in presence of NADPH regenerating system by LC-MS/MS analysis; assay type: ADME, subcellular
[6] = biological target: T1, Dual specificity protein kinase CLK1; test: Inhibition of human CLK1 using GRSRSRSRSRSRSRS as substrate incubated for 15 mins in presence of ATP by gamma32P-ATP based analysis
Target sequence in this assay (P49759 whole entry): as the sequence (P49759 whole entry, looked up) above

[7] = test system: T-24; test: Antiproliferative activity against human T24 cells assessed as cell growth inhibition incubated for 3 days by MTT assay; assay type: functional; conditions: T-24, 72 h, time 3 day
[8] = test system: NHDF; test: Cytotoxicity against HDF cells assessed as inhibition of cell growth at 15 uM incubated for 2 days by WST-1 analysis; assay type: toxicity, cell-based; conditions: human, 48 h, time 2 day
[9] = biological target: Dual specificity protein kinase CLK4 (Homo sapiens, UniProt Q9HAZ1); test: Inhibition of CLK4 (unknown origin) in presence of ATP
Chain of Dual specificity protein kinase CLK4 (Q9HAZ1 whole entry): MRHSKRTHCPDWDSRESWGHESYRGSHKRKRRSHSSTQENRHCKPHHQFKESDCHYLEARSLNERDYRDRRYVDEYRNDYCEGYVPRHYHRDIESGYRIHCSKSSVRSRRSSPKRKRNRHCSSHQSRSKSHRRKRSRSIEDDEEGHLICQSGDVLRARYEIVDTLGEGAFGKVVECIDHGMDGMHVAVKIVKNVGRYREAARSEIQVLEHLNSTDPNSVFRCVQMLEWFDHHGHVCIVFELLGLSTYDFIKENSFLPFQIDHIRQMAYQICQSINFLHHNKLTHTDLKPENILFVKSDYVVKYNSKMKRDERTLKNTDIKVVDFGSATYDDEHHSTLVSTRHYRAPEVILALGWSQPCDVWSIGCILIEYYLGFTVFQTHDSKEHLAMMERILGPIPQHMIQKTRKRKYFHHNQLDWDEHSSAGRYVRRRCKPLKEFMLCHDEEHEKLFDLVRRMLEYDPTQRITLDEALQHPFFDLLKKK

[10] = biological target: Dual specificity tyrosine-phosphorylation-regulated kinase 1A (Homo sapiens, UniProt Q13627); test: Inhibition of DYRK1A (unknown origin) in presence of ATP
[11] = Cytotoxicity against HDF cells assessed as cell growth inhibition at 15 uM incubated for 2 days by WST-1 analysis relative to control; assay type: toxicity, cell-based; conditions: human, HDF cells (NHDF, normal human dermal fibroblasts), time 2 day, read-out: GI
[12] = test system: T-24; test: Antiproliferative activity against human T24 cells assessed as cell growth inhibition; assay type: functional

SMILES: CC(C)(C)c1ccc(C(=O)Nc2cn3cc(-c4cn[nH]c4)ccc3n2)cn1
Ratio IC50 [1]: 2.2

SMILES: COc1ccc2sc(C(=O)NNc3ncccc3Cl)cc2c1
inhibition [2]: 0%

SMILES: COc1ccc2sc(C(=O)NC(=O)c3cc(Cl)ccc3OC)cc2c1
Selectivity Index [3]: 60
half-life [4]: 10 min
half-life at 0.3 µM [5]: 10.2 min

SMILES: COc1ccc2sc(C(=O)N(C)Nc3cccc(Cl)c3)cc2c1
GI50 [7]: > 15 µM
Activity [8]: Non-Toxic

SMILES: COc1ccc2sc(C(=O)NNc3ccc(Cl)cc3Cl)cc2c1
inhibition [2]: 30.4%

SMILES: C[C@@H](c1ccc(F)cc1)n1nnc2cnc3ccc(-c4ccc5ocnc5c4)cc3c21
Selectivity Index [3]: 69

SMILES: COc1ccc2sc(C(=O)NNc3nc(OC)ncc3F)cc2c1
inhibition [2]: 0%

SMILES: COc1ccc2sc(C(=O)NNc3ccc(C)cc3C)cc2c1
inhibition [2]: 0%

SMILES: COc1ccc2sc(C(=O)N(C)N(C)c3cc(F)cc(F)c3)cc2c1
inhibition [2]: 85%
GI50 [7]: > 15 µM
IC50 [6]: 0.0245 µM
inhibition at 48 h, 15 µM [11]: 20.8%

SMILES: COc1ccc2sc(C(=O)N(C)N(C)c3cccc(Br)n3)cc2c1
inhibition [2]: 77.2%
IC50 [6]: 0.0129 µM

SMILES: COc1ccc2sc(C(=O)N(C)Cc3cc(F)cc(F)c3)cc2c1
GI50 [7]: 1.78 µM
GI50 [12]: 0.43 µM
half-life [4]: 10 min
inhibition at 48 h, 15 µM [11]: 9.16%
half-life at 0.3 µM [5]: 9.9 min

SMILES: COc1ccc2sc(C(=O)N(C)N(C)c3cccc(C#N)c3)cc2c1
inhibition [2]: 62.7%
IC50 [6]: 0.0321 µM

SMILES: COc1ccc2sc(C(=O)N(C)N(C)c3cccc(Br)c3)cc2c1
inhibition [2]: 68.1%
IC50 [6]: 0.0738 µM

SMILES: COc1ccc2sc(C(=O)N(C)N(C)c3cc(Cl)cc(Cl)c3)cc2c1
inhibition [2]: 66.3%
IC50 [6]: 0.0635 µM

SMILES: COc1ccc2sc(C(=O)NNc3cccc(Br)n3)cc2c1
GI50 [7]: 11.4 µM

SMILES: Cn1cc(-c2ccc3occ(-c4cccc(-c5ccncc5)c4)c3n2)cn1
Selectivity Index [3]: 26.6
Ratio IC50 [1]: 2.5

SMILES: COc1ccc2sc(C(=O)N(C)N(C)c3cccc(N)c3)cc2c1
inhibition [2]: 51.2%
IC50 [6]: 0.0974 µM

SMILES: COc1ccc2sc(C(=O)N(C)Cc3cccc(F)c3)cc2c1
Selectivity Index [3]: 48.6
half-life [4]: 10 min
half-life at 0.3 µM [5]: 17.2 min

SMILES: CNc1ncc2cc3cnccc3c([N+](=O)[O-])c2n1
Selectivity Index [3]: 34

SMILES: COc1ccc2sc(C(=O)NNc3cc(Cl)cc(Cl)c3)cc2c1
GI50 [7]: 3.4 µM
IC50 [9]: 0.0134 µM
IC50 [10]: 0.191 µM
half-life at 0.3 µM [5]: 385 min

SMILES: COc1ccc2sc(C(=O)N(C)N(C)c3cccc([N+](=O)[O-])c3)cc2c1
inhibition [2]: 47.8%

Continued, in another order:

inhibition [2]: 16.9%
SMILES: COc1ccc2sc(C(=O)NNc3ccc(I)cc3)cc2c1

inhibition [2]: 5%
SMILES: COc1ccc2sc(C(=O)NNc3ccc(F)cc3)cc2c1

inhibition [2]: 84.6%
IC50 [6]: 0.0377 µM
SMILES: COc1ccc2sc(C(=O)NNc3cccc(Br)c3)cc2c1

inhibition [2]: 73.1%
IC50 [6]: 0.0054 µM
SMILES: COc1ccc2sc(C(=O)NNc3cccc(C#N)c3)cc2c1
GI50 [7]: 10 µM
Activity [8]: Non-Toxic

IC50 [9]: 0.0211 µM
IC50 [10]: 0.201 µM
half-life at 0.3 µM [5]: 56.9 min
SMILES: COc1ccc2sc(C(=O)NNc3cc(F)cc(F)c3)cc2c1
GI50 [7]: 8.9 µM
Activity [8]: Non-Toxic

inhibition [2]: 22.3%
SMILES: COc1ccc2sc(C(=O)NNc3cc(C(F)(F)F)cc(C(F)(F)F)c3)cc2c1

inhibition [2]: 86.8%
IC50 [6]: 0.0037 µM
SMILES: COc1cccc(NNC(=O)c2cc3cc(OC)ccc3s2)c1
GI50 [7]: > 15 µM
Activity [8]: Non-Toxic

inhibition [2]: 12.8%
SMILES: COc1ccc2sc(C(=O)NNc3ccc(Cl)cc3)cc2c1

inhibition [2]: 63%
IC50 [6]: 0.073 µM
SMILES: COc1ccc2sc(C(=O)NNc3cccc(C(F)(F)F)c3)cc2c1

inhibition [2]: 6.2%
SMILES: COc1ccc2sc(C(=O)NNc3ccccc3Br)cc2c1

inhibition [2]: 70.5%
IC50 [6]: 0.0665 µM
SMILES: COc1ccc2sc(C(=O)NNc3cccc(F)c3)cc2c1

inhibition [2]: 4.1%
SMILES: COc1ccc2sc(C(=O)NNc3ccc(F)cc3F)cc2c1

inhibition [2]: 0%
SMILES: COc1ccc2sc(C(=O)NNc3ccc(C(F)(F)F)cc3)cc2c1

inhibition [2]: 3.8%
SMILES: COc1ccc2sc(C(=O)NNc3ccc(C(C)C)cc3)cc2c1

inhibition [2]: 38.1%
SMILES: COc1ccc2sc(C(=O)NNc3ccccc3)cc2c1

inhibition [2]: 25.9%
SMILES: COc1ccc2sc(C(=O)NNc3ccc(C)c(Cl)c3)cc2c1

inhibition [2]: 28.9%
SMILES: COc1ccc2sc(C(=O)NNc3ccccn3)cc2c1

inhibition [2]: 68.4%
IC50 [6]: 0.0856 µM
SMILES: COc1ccc2sc(C(=O)NNc3cccc([N+](=O)[O-])c3)cc2c1

inhibition [2]: 17.7%
SMILES: COc1ccc2sc(C(=O)NNc3ccc(F)c(F)c3)cc2c1

inhibition [2]: 7.2%
SMILES: COc1ccc2sc(C(=O)NNc3ccc([N+](=O)[O-])cc3)cc2c1

inhibition [2]: 29.9%
SMILES: COc1ccc2sc(C(=O)NNc3cccc(C)c3)cc2c1

inhibition [2]: 49%
SMILES: COc1ccc2sc(C(=O)NNc3cccc(N)c3)cc2c1

inhibition [2]: 0%
SMILES: COc1ccc2sc(C(=O)NNc3c(Cl)cccc3Cl)cc2c1

inhibition [2]: 29.5%
SMILES: COc1ccc2sc(C(=O)NNc3ccccc3Cl)cc2c1

inhibition [2]: 18.6%
SMILES: COc1ccc2sc(C(=O)NNc3ccccc3F)cc2c1

inhibition [2]: 21.3%
SMILES: COc1ccc2sc(C(=O)NNc3ccc(Br)cc3)cc2c1

inhibition [2]: 18.4%
IC50 [6]: > 0.1 µM
SMILES: COc1ccc2sc(C(=O)NNc3ccc(C#N)cc3)cc2c1
GI50 [7]: > 15 µM
Activity [8]: Non-Toxic

inhibition [2]: 27.9%
SMILES: COc1ccc2sc(C(=O)NNc3ccc(F)c(Cl)c3)cc2c1
